Calls of active or inactive are those of the source.
Legend:
[1] = enhancers of respiration in Yfh1-depleted yeast, dose response, Friedreich's ataxia, plus single-dose screen (AID 1465); assay type: functional;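 note: yeast depleted of Yfh1p frataxin homolog grown on glycerol needing respiration; WST-1 tetrazolium dye reduction as measure of cellular dehydrogenase metabolic activity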
[2] = molecular target: T1, E3 ubiquitin-protein ligase XIAP (Homo sapiens, UniProt P98170); assay: Counter Screen using XIAP-Bir3 for Chemical Antagonists of Bir1/2 domains of IAP-family anti-apoptotic proteins. [Related pubchem assays (depositor defined):AID1018, AID1449, AID1514, AID1638, AID1749, AID1750, AID488957, AID488963]
T1 sequence (P98170 whole entry): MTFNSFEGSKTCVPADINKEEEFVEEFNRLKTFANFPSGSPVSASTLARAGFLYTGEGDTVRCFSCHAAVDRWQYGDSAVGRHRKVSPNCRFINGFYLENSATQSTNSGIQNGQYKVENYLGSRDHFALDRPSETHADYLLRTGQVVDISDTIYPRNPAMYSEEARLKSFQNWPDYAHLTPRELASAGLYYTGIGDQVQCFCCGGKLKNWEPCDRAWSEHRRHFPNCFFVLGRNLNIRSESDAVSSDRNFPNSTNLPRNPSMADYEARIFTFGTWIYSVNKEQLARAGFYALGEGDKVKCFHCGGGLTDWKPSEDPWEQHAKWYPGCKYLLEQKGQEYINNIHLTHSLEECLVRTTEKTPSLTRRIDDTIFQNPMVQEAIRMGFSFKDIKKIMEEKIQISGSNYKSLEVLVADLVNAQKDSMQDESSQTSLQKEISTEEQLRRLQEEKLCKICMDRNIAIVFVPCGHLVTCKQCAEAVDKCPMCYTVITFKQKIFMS

[3] = molecular target: T1, E3 ubiquitin-protein ligase XIAP; assay: XIAP antagonists, biochemical, IAP family, fluorescence polarization (AID 1018); assay type: functional
Kallikrein-7 = Kallikrein-7 (Homo sapiens, UniProt P49862); assay: Fluorescence Intensity-based biochemical primary high throughput dose response assay to identify activators of kallikrein-7 (K7) zymogen.
Chain of Kallikrein-7 (P49862 whole entry): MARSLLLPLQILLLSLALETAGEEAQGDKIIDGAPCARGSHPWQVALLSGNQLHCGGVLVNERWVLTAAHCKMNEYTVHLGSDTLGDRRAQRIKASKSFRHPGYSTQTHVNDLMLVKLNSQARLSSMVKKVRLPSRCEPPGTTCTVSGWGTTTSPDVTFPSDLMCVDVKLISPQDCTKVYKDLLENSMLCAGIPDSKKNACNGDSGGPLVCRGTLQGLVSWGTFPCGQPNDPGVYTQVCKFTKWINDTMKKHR

[4] = molecular target: T2, 1-phosphatidylinositol 4,5-bisphosphate phosphodiesterase gamma-1 (Homo sapiens, UniProt P19174); assay: Counterscreen for inhibitors of phospholipase C isozymes (PLC-B3): Fluorescence-based biochemical high throughput dose response assay to identify inhibitors of phospholipase C isozymes (PLC-gamma1).
T2 sequence (P19174 whole entry): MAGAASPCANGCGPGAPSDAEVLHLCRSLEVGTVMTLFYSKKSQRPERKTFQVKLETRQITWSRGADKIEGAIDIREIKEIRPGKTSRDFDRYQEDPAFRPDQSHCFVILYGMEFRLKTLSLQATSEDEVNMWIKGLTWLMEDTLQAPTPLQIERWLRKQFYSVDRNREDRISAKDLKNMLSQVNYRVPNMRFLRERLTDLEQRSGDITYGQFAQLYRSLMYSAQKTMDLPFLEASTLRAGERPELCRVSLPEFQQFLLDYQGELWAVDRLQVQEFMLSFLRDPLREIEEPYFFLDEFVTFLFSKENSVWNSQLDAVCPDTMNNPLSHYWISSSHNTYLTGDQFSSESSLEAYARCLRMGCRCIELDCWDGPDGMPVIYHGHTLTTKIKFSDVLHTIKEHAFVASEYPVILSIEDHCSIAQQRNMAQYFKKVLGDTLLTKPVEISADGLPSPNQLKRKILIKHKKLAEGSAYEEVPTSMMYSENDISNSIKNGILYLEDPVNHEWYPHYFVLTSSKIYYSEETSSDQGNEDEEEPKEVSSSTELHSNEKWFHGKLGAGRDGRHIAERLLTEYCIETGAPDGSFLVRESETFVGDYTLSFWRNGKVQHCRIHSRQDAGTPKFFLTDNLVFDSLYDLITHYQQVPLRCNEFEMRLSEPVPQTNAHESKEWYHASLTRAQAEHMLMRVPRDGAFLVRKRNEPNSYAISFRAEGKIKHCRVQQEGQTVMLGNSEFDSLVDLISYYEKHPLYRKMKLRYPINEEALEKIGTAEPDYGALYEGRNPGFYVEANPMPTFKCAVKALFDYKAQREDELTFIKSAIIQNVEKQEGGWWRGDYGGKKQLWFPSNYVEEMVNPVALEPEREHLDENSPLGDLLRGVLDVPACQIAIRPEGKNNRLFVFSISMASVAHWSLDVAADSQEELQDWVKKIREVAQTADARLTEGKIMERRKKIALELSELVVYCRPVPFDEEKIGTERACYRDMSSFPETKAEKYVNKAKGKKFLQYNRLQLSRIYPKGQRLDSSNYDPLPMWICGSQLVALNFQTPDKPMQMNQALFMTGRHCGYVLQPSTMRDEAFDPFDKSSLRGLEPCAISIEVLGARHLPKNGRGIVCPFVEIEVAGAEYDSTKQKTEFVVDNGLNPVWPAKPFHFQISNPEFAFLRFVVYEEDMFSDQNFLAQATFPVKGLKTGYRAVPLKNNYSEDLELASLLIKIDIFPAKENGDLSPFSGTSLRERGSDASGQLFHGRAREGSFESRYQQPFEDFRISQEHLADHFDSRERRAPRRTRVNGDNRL

[5] = molecular target: T3, 1-phosphatidylinositol 4,5-bisphosphate phosphodiesterase beta-3 (Homo sapiens, UniProt Q01970); assay: Fluorescence-based biochemical high throughput dose response assay to identify inhibitors of phospholipase C isozymes (PLC-B3).
T3 sequence (Q01970 whole entry): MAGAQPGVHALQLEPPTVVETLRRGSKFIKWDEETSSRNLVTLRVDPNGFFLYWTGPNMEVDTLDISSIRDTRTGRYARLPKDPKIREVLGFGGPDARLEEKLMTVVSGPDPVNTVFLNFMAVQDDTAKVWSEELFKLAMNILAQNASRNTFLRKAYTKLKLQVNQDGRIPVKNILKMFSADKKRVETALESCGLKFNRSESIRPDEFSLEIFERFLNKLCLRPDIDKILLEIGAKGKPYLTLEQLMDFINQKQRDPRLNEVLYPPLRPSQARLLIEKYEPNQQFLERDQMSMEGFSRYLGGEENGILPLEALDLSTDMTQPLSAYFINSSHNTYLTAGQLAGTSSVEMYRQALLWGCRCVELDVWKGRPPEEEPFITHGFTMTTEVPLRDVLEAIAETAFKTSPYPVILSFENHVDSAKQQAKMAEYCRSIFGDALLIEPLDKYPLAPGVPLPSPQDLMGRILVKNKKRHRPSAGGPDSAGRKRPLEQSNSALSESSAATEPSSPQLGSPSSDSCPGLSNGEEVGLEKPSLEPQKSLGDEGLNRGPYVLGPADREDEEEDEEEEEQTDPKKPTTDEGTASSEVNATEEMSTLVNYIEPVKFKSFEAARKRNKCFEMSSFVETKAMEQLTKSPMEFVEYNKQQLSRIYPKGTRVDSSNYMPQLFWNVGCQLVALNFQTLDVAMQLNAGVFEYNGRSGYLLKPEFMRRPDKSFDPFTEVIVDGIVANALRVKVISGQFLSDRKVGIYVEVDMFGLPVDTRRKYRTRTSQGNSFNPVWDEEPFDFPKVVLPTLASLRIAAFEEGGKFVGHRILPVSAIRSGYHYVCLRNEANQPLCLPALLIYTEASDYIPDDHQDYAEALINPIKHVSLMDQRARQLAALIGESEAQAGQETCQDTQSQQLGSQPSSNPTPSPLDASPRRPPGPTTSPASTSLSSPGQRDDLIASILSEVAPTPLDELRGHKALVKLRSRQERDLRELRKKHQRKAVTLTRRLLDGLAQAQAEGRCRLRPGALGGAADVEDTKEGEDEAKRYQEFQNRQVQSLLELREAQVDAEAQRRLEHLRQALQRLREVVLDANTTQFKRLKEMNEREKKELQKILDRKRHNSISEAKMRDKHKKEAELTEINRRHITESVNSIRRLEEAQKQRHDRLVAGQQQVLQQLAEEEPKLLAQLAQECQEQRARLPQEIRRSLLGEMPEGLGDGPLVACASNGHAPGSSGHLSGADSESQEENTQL

[6] = molecular target: T4, Mannose-6-phosphate isomerase (Homo sapiens, UniProt P34949); assay: human PMI inhibitors, high substrate, primary screen, biochemical, fluorescence intensity, high mannose 6-phosphate (AID 1220)
T4 sequence (P34949 whole entry): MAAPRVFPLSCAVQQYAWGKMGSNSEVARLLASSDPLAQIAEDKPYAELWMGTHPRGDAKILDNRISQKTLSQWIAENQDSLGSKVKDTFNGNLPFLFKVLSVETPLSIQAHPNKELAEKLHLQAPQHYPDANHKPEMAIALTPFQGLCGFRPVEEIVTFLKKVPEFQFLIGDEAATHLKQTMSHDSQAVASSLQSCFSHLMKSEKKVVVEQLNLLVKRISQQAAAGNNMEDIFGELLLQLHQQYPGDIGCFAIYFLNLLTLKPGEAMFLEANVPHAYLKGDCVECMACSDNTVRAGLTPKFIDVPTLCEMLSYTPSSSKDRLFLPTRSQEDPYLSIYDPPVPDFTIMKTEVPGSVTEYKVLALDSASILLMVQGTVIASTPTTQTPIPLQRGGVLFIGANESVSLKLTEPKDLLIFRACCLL

[7] = P. falciparum Dd2 growth inhibitors, dose response, SYBR Green, cherry-picked samples (AID 1159567); assay type: functional, cell-based
[8] = P. falciparum ATP4 D1247Y mutant growth inhibitors, dose response, NITD609-resistant line, SYBR Green, dry powder (AID 1159571); assay type: functional, cell-based;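 note: parasites synchronized at ring stage by sorbitol before testing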
[9] = P. falciparum 3D7-ScDHODH growth inhibitors, dose response, SYBR Green, dry powder samples (AID 1159570); assay type: functional, cell-based;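 note: parasite growth measured after 72 hours of compound exposure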
[10] = P. falciparum Dd2 growth inhibitors, dose response, SYBR Green, dry powder samples (AID 1159566); assay type: functional, cell-based;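 note: potency for growth inhibition with lower SYBR green DNA signal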
[11] = HepG2 cell cytotoxicity, dose response, cytotoxicity control, plate reader, dry powder samples (AID 1159569); assay type: functional, cell-based;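 note: inhibitor potency with signal falling toward the positive control level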
Cytochrome P450 3A4 = Cytochrome P450 3A4 (Homo sapiens, UniProt P08684);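 note: CYP3A4 tested as one member of a cytochrome P450 panel screen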
Chain of Cytochrome P450 3A4 (P08684 whole entry): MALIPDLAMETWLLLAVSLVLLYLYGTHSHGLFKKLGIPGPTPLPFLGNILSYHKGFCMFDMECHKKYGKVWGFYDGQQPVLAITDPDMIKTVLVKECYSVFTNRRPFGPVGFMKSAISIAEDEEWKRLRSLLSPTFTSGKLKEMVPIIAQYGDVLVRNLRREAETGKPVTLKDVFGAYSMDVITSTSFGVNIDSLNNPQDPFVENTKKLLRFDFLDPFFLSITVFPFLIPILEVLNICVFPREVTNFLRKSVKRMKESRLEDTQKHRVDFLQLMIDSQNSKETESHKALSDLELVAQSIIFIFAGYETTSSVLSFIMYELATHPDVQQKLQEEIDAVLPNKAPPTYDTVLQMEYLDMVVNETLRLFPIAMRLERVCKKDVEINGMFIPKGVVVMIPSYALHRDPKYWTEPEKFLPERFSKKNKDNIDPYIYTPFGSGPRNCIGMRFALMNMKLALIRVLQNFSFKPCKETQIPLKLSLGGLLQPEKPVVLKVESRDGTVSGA

Cytochrome P450 2C9 = Cytochrome P450 2C9 (Homo sapiens, UniProt P11712)
Chain of Cytochrome P450 2C9 (P11712 whole entry): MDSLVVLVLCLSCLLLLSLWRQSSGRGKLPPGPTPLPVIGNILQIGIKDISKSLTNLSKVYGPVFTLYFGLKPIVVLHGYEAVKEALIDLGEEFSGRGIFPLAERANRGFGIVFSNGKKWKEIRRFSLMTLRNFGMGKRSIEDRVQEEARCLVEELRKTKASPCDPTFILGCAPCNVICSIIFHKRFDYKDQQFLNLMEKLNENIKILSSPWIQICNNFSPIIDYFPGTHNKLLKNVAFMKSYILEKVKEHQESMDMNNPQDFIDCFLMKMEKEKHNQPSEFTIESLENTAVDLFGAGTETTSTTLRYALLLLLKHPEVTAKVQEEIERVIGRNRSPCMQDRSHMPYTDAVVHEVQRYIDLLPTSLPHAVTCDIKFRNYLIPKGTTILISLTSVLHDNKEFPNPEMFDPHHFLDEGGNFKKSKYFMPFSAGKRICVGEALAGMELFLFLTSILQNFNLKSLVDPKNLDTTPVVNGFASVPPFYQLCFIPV

[12] = molecular target: T5, Histone-lysine N-methyltransferase NSD2 (Homo sapiens, UniProt O96028); assay type: biochemical
T5 sequence (O96028 whole entry): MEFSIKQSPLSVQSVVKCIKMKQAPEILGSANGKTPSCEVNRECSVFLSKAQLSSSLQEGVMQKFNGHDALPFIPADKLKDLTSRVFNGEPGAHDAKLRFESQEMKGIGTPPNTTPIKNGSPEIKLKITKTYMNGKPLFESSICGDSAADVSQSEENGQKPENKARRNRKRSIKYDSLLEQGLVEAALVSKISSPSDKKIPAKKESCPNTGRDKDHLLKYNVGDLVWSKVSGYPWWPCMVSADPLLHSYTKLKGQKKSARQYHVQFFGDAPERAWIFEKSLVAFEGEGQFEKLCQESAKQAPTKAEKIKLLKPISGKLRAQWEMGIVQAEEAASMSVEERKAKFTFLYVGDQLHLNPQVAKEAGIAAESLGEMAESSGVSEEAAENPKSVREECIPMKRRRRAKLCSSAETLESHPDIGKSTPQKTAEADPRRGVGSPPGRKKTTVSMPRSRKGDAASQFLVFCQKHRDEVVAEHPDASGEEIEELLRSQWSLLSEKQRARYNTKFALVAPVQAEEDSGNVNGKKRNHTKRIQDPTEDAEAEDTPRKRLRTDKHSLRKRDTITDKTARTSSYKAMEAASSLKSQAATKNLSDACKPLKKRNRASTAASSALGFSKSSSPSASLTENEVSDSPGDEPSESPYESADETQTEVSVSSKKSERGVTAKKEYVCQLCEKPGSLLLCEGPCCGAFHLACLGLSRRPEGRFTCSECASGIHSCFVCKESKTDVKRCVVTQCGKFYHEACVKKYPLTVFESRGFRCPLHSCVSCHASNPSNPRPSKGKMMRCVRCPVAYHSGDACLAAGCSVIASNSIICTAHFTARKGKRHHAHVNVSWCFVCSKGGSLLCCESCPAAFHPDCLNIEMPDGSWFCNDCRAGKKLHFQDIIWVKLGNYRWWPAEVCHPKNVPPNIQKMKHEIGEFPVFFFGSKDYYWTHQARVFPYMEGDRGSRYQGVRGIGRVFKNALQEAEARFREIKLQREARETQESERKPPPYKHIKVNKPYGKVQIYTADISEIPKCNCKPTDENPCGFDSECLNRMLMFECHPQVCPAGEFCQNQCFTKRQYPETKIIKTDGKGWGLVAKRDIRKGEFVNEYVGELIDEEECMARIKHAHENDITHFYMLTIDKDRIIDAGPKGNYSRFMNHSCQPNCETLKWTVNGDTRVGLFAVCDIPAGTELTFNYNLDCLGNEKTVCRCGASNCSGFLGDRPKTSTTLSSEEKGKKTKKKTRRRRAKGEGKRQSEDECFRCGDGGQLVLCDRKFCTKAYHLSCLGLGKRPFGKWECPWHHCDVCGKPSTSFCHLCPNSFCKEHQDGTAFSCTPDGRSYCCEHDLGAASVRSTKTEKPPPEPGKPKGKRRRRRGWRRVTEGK

O=[N+]([O-])c1ccc(N2CCCC2)cc1N/N=C1\CN2CCC1CC2
EC50 [1]: > 100 µM (active)

O=C(c1ccc(S(=O)(=O)NCC2CCCO2)cc1)N1CCN(c2cccc(Cl)c2)CC1 (stereo unspecified)
IC50 [2]: > 100 µM (inactive)
IC50 [3]: > 100 µM (not active)

O=C(C[C@H]1C[C@H](C(=O)N2CCCCC2)[C@@]2(CCc3ccccc3)c3[nH]c4cc(-c5ccco5)ccc4c3CCN2C1=O)NCCN1CCOCC1
EC50 (Kallikrein-7): 8.82 µM (active)

COc1ccc(S(=O)(=O)N2CCCC2)c(C)c1C
IC50 [2]: > 100 µM (inactive)
IC50 [3]: > 100 µM (not active)

Oc1c2nc3ccccc3c-2ncn1CCN1CCOCC1
IC50 [4]: > 122 µM (inactive)
IC50 [5]: > 122 µM (inactive)

Cc1ccc(O)c(/N=C/c2ccc(C)s2)c1
IC50 [6]: > 50 µM (not active)

COc1ccc2c3c(n(C)c2c1)[C@H](CO)N(C(=O)Nc1ccc(F)cc1)CC31CCN(C)CC1
AC50 [7]: 2.67 µM (active)
AC50 [8]: 4.61 µM (active)
AC50 [9]: 4.11 µM (active)
AC50 [10]: 2.87 µM (active)
AC50 [11]: 54.1 µM (active)

C=CCNc1sc(C(=O)c2ccc(C)cc2)c(N)c1C#N
AC50 (Cytochrome P450 3A4): 31.6 µM (inconclusive)
EC50 (Kallikrein-7): 9.46 µM (active)
AC50 (Cytochrome P450 2C9): inconclusive

O=C(Nc1ccc(F)cc1)N1CCCCN2[C@H](CO)[C@H](c3ccc(C#Cc4ccccc4)cc3)[C@@H]2C1
AC50 [7]: < 0.3 µM (active)
AC50 [8]: 0.0214 µM (active)
AC50 [9]: 0.0201 µM (active)
AC50 [10]: 0.0167 µM (active)
AC50 [11]: 80.3 µM (active)

COc1cc(NC(=O)COc2ccccc2Cl)ccc1NC(=O)c1cccs1
EC50 (Kallikrein-7): 8.31 µM (active)

CCN(CC)CCNC(=O)/C(=C\c1cccn1C)NC(=O)c1cccs1
AC50 [12]: > 20 µM (inactive)
IC50 [2]: > 100 µM (inactive)
IC50 [3]: > 100 µM (not active)

Reference: ChEMBL document CHEMBL1201862, “PubChem BioAssay data set” (2004)
